{"source": "patent EP0922101B1", "about": "“EGF-LIKE FACTOR FROM CHROMAFFIN GRANULES AND GLIA CELL-DERIVED NEUROTROPHIC FACTOR WITH SURVIVAL-PROMOTING ACTIVITY ON DAERGIC NEURONS” (BIOPHARM Gesellschaft zur biotechnologischen Entwicklung …, priority 1996, dated 1998)", "key": {"[1]": {"test_system": "mesencephalic DAergic neurons", "test": "Survival of TH-positive DAergic neurons in dissociated E14 ventral mesencephalic cell cultures (TH immunocytochemistry, cell counts)", "type": "cell-based, rat", "details": "for effect on survival promoting effect of chromaffin granule protein: 30 µM in combination with chromaffin granule protein 1:50, DIV1-DIV8; for basal survival of TH-immunoreactive neurons: 30 µM, control cultures, DIV8; for survival promoting activity: concentrations up to 100 ng/ml, treated for 7 days", "procedure": "(§1) Tissue culture. Mesencephalic cell cultures were essentially established as described by Krieglstein and Unsicker (1994). In brief, the ventral midbrain floor was dissected from embryonic day (E) 14 Wistar rat fetuses of two litters (20-25 embryos) and collected in CMF. Tissue pieces were enzymatically dissociated using 0.25% trypsin (BioWhittaker) in CMF for 15 min at 37°C. After addition of an equal volume of ice-cold horse serum and 1mg DNAse, Cells were triturated with fire-polished and siliconized pasteur pipettes and subsequently washed with DMEM/F12. The single cell suspension (100µl) was seeded on polyornithine (0.1 mg/ml in 15mM borate buffer, pH 8.4, Sigma)-laminin (5µg/ml; Sigma) coated glass cover slips at a density of 200.000 cells/cm^2. Coverslips were incubated in a humified 5% CO2/95% air atmosphere to allow cells to attach. After two hours coverslips were transferred to 24-well plates (Falcon) containing 750 µl medium. On the following day, and subsequently every three days, 500 µl of the medium was replaced and neurotrophic factors were added at the same time at the given concentrations.\nImmunocytochemistry. To identify DAergic or serotinergic neurons cells were visualized using antibodies aginst tyrosine hydroxylase (TH), or serotonin, respectively. Cells were fixed with 4% paraformaldehyde buffered in phosphate buffered saline (PBS) for 10 min at room temperature, permeabilized with acetone at -20°C for 10 min and washed with (PBS). After blocking with 1% H2O2 in PBS, followed by 1 % horse serum, coverslips were stained with a monoclonal antibody to rat TH (1:200; Boehringer Mannheim; diluted in 1 % horse serum) or with an antibody against serotonin (1:50; DAKO) for 1 h at 37°C. Specific staining was vizualized using the anti-mouse Vectastain ABC kit in combination with DAB (Camon, Germany). For glial fibrillary acidic protein (GFAP) immunocytochemistry, cells were fixed and permeabilized using aceton at -20°C for 20 min, then washed with PBS and incubated with a monoclonal antibody against GFAP (1:100; Sigma) for 1 h at 37°C. As a secondary antibody TRITC anti-mouse-IgG was used. To monitor cell proliferation bromodesoxyuridine (BrdU) was added to the culture, 24 hours prior fixation, at a final concentration of 10 µM. Cells were washed twice with PBS and fixed with 70% ethanol buffered with 50 mM glycine, pH 2.0, for 20 min at -20°C. Incorporated BrdU was identified using anti-BrdU detection Kit I (Boehringer, Mannheim). BrdU/TH double detection was achieved by first applying the protocol for BrdU followed after another five washes with PBS and by the procedure for TH staining using TRITC anti-mouse-IgG as a secondary antibody. Nuclei were stained with propidium iodide (20 s, 0.1µg/ml). Coverslips were mounted using Aquatex (Merck, Darmstadt).\n(§2) Evaluation of cell numbers. Survival of DAergic neurons was evaluated by counting all TH-positive neurons in one diagonal strips of the coverslip using 100-fold magnification. This area corresponded to 12% of the total area. Quantification was done in triplicate and in at least two independent experiments. The number of GFAP-positive cells were assessed likewise."}, "[2]": {"test_system": "GFAP-positive astroglial cells", "test": "Induction of GFAP-positive astroglial cells in E14 mesencephalic cell cultures (GFAP immunocytochemistry)", "type": "cell-based, rat", "procedure": "as §1\nImmunocytochemistry. To identify DAergic or serotinergic neurons cells were visualized using antibodies aginst tyrosine hydroxylase (TH), or serotonin, respectively. Cells were fixed with 4% paraformaldehyde buffered in phosphate buffered saline (PBS) for 10 min at room temperature, permeabilized with acetone at -20°C for 10 min and washed with (PBS). After blocking with 1% H2O2 in PBS, followed by 1 % horse serum, coverslips were stained with a monoclonal antibody to rat TH (1:200; Boehringer Mannheim; diluted in 1 % horse serum) or with an antibody against serotonin (1:50; DAKO) for 1 h at 37°C. Specific staining was vizualized using the anti-mouse Vectastain ABC kit in combination with DAB (Camon, Germany). For glial fibrillary acidic protein (GFAP) immunocytochemistry, cells were fixed and permeabilized using aceton at -20°C for 20 min, then washed with PBS and incubated with a monoclonal antibody against GFAP (1:100; Sigma) for 1 h at 37°C. As a secondary antibody TRITC anti-mouse-IgG was used. […]\nas §2, with “This area corresponded to 12% of the total area.” left out\nIn an initial series of experiments the chromaffin granule-derived activity is analyzed by specifically blocking its putative receptor pathway. […] When cultures were treated with TGF-α, a physiological EGFR ligand in the CNS, or EGF (10 ng/ml), only few GFAP-positive astroglial cells could be detected (Fig. 12). […]"}, "EGFR kinase": {"molecular_target": "EGFR kinase (Homo sapiens, UniProt P00533)", "sequence (P00533 25-1210)": "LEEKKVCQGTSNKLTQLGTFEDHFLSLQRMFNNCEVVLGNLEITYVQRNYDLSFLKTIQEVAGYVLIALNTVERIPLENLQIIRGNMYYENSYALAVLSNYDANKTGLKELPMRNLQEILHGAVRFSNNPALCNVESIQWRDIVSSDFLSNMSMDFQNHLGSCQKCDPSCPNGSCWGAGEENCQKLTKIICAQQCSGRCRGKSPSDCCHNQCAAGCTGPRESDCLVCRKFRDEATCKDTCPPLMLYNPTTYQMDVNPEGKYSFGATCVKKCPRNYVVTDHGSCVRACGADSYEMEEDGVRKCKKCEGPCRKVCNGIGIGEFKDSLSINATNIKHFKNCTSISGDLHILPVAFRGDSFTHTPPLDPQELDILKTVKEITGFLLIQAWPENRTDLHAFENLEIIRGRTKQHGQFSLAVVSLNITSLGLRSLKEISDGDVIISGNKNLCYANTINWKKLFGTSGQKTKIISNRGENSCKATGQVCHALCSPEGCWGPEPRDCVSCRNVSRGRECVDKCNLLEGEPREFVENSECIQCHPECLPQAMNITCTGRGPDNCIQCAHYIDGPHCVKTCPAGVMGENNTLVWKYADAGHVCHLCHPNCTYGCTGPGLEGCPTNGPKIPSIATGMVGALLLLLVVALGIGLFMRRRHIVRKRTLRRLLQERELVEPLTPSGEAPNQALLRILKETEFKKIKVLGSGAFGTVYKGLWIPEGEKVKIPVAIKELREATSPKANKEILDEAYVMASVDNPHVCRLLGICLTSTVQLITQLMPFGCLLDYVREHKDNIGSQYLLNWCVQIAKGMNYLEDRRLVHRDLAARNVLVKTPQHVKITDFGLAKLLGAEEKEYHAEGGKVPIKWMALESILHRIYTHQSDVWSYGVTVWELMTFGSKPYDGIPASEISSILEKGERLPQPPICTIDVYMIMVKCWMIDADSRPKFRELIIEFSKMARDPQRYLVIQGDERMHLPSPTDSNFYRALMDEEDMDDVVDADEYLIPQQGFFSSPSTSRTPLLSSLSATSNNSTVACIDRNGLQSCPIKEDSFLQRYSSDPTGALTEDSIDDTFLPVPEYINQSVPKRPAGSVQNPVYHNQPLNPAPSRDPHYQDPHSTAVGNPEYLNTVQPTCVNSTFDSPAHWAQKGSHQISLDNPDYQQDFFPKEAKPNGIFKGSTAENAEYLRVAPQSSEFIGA", "details": "EGFR kinase autophosphorylation; cited from earlier work"}, "HER1-2-kinase": {"molecular_target": "HER1-2-kinase", "details": "HER1-2-kinase autophosphorylation; cited from earlier work"}, "p185^c-erbB2": {"molecular_target": "p185^c-erbB2 (Homo sapiens, UniProt P04626)", "sequence (P04626 23-1255)": "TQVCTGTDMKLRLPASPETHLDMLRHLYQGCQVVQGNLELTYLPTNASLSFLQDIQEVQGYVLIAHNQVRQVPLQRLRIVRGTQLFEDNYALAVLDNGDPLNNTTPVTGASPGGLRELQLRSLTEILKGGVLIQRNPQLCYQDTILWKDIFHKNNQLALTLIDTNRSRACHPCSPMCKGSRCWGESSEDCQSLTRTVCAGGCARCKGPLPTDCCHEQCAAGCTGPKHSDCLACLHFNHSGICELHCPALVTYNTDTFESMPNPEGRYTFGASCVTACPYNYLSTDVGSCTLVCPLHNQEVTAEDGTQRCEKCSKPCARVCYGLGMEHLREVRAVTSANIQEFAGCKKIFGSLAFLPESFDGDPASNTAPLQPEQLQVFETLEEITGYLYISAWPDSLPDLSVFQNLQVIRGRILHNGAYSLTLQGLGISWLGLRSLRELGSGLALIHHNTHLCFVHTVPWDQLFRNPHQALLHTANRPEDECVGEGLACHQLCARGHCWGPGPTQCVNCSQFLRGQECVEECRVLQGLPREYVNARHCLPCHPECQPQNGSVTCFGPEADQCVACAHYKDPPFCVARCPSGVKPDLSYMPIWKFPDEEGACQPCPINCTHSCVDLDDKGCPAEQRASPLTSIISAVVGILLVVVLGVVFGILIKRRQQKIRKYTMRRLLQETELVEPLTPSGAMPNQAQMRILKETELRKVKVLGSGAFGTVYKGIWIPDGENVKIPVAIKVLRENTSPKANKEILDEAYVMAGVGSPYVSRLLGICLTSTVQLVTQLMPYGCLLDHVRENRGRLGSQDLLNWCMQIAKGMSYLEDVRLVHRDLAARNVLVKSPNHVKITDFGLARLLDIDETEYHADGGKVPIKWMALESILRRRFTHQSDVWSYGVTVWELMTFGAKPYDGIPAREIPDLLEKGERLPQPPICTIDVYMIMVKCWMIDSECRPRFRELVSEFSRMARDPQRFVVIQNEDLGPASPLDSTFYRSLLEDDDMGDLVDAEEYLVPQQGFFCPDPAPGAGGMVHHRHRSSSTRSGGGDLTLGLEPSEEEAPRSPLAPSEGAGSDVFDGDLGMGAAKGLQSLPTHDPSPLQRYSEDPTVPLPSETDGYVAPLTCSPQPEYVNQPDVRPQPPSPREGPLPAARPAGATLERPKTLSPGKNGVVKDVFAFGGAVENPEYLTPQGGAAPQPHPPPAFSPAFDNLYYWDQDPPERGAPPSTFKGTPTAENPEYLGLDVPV", "details": "cited from earlier work"}, "[3]": {"details": "10µM with chromaffin granule protein 1:50, six days"}}, "note": "“Also recorded” adds a separate entry of the source.", "data": [{"molecule": "NC(CCCC(=O)O)C(=O)O", "note": "(stereo not drawn) [AA, α-aminoadipic acid]", "values": [{"measurement": "effect on survival promoting effect of chromaffin granule protein", "setting": "[1]", "result": "abolished the survival promoting affect of chromaffin granule protein"}, {"measurement": "basal survival of TH-immunoreactive neurons", "setting": "[1]", "result": "without affecting basal survival"}]}, {"molecule": "Leu-enkephalin", "values": [{"measurement": "survival promoting activity", "setting": "[1]", "result": "none of these neuropeptides had any survival promoting activity"}]}, {"molecule": "O=c1[nH]c(=O)n([C@H]2C[C@H](O)[C@@H](CO)O2)cc1F", "note": "[FDUR, 5-fluorodeoxyuridine]", "values": [{"measurement": "effect on survival promoting effect of chromaffin granule protein", "setting": "[1]", "result": "abolished the survival promoting affect of chromaffin granule protein"}, {"measurement": "basal survival of TH-immunoreactive neurons", "setting": "[1]", "result": "without affecting basal survival"}]}, {"molecule": "C[N+](C)(C)CCOC(N)=O", "note": "[carbachol]", "values": [{"measurement": "survival of TH-positive neurons", "setting": "[1]; culture medium containing carbachol (10^-5 M), DIV 8", "result": "uneffective"}]}, {"molecule": "N#C/C(=C\\c1ccc(O)c(O)c1)C(=O)NCCCCc1ccccc1", "note": "[Tyrphostin B56]", "values": [{"measurement": "effect on chromaffin granule protein-induced appearence of astroglial cells", "setting": "[2]; 10µM Tyrphostin B56 with chromaffin granule protein 1:50", "result": "successfully inhibited; also recorded: fully blocked the effect of granule protein on mesencephalic glia"}, {"measurement": "IC50", "setting": "EGFR kinase", "result": 5, "unit": "µM"}, {"measurement": "IC50", "setting": "HER1-2-kinase", "result": "> 500", "unit": "µM"}]}, {"molecule": "O=C1NC(=O)c2cc(Nc3ccccc3)c(Nc3ccccc3)cc21", "note": "[DAPH, 4,5-Dianilinophthalimide]", "values": [{"measurement": "effect on FGF-2-mediated induction of astroglial cells", "setting": "[2]; 10 µM with FGF-2 at 10 ng/ml, DIV 6", "result": "could not be affected by this inhibitor"}, {"measurement": "effect on appearence of astroglial cell induced by the chromaffin granule activity", "setting": "[2]; [3]", "result": "inhibited"}, {"measurement": "effect on appearance of GFAP-positive astroglial cells in TGF-α or EGF treated cultures", "setting": "[2]; 10 µM, DIV 6", "result": "effectively blocked"}, {"measurement": "p185^c-erbB2 autophosphorylation", "setting": "p185^c-erbB2", "result": "inhibits"}, {"measurement": "effect on survival of DAergic neurons induced by chromaffin granule activity", "setting": "[1]; [3]", "result": "inhibited"}]}, {"molecule": "Met-enkephalin", "values": [{"measurement": "survival promoting activity", "setting": "[1]", "result": "none of these neuropeptides had any survival promoting activity"}]}, {"molecule": "neuropeptide Y", "values": [{"measurement": "survival promoting activity", "setting": "[1]", "result": "none of these neuropeptides had any survival promoting activity"}]}]}
